# Test results: ChEMBL document CHEMBL1201862, “PubChem BioAssay data set” (2004)
#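 The compound was tested at five concentrations on cells cultured in 96-well plates, with a 48-hour exposure period. Here, GI50 denotes the concentration required for 50% inhibition of growth.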 Calls of active or inactive are those of the source. Rule as the data show it: active = GI50 up to about 1.1 µM and inactive = higher. Where a SMILES comes first, the peptide text is derived from it. The star is where a group is joined. X33 = O=C(c1ccc(-c2ccc(Cl)cc2Cl)o1)*
# Assays:
# Experiment in all cases: NCI tumour cell line growth inhibition, 48 h
# A549 = system: A549
# BT-549 = system: BT-549
# CCRF-CEM = system: CCRF-CEM
# COLO 205 = system: COLO 205
# HCT-116 = system: HCT-116
# HOP-62 = system: HOP-62
# HT-29 = system: HT-29
# Hs-578T = system: Hs-578T
# IGROV-1 = system: IGROV-1
# M14 = system: M14
# MCF7 = system: MCF7
# MDA-MB-231 = system: MDA-MB-231
# MDA-N = system: MDA-N
# MOLT-4 = system: MOLT-4
# NCI-H23 = system: NCI-H23
# OVCAR-5 = system: OVCAR-5
# RXF 393 = system: RXF 393
# SK-MEL-28 = system: SK-MEL-28
# SR = system: SR
# SW-620 = system: SW-620
SMILES,GI50 (A549),GI50 (BT-549),GI50 (CCRF-CEM),GI50 (COLO 205),GI50 (HCT-116),GI50 (HOP-62),GI50 (HT-29),GI50 (Hs-578T),GI50 (IGROV-1),GI50 (M14),GI50 (MCF7),GI50 (MDA-MB-231),GI50 (MDA-N),GI50 (MOLT-4),GI50 (NCI-H23),GI50 (OVCAR-5),GI50 (RXF 393),GI50 (SK-MEL-28),GI50 (SR),GI50 (SW-620)
Cc1ccc(/N=N/c2c(C)nn(C(=O)CC(=O)Nc3ccccc3)c2C)cc1C,> 100 µM (inactive),> 100 µM (inactive),> 100 µM (inactive),> 100 µM (inactive),> 100 µM (inactive),> 100 µM (inactive),> 100 µM (inactive),> 100 µM (inactive),> 100 µM (inactive),> 100 µM (inactive),> 100 µM (inactive),> 100 µM (inactive),> 100 µM (inactive),> 100 µM (inactive),> 100 µM (inactive),> 100 µM (inactive),> 100 µM (inactive),> 100 µM (inactive),> 100 µM (inactive),> 100 µM (inactive)
CCC1CCC2c3c([nH]c4ccc(C)cc34)C3C(=O)N(N(C)C)C(=O)C3C2C1 (stereo not given),15.9 µM (inactive),39.1 µM (inactive),12.7 µM (inactive),4.36 µM (inactive),7.36 µM (inactive),> 27 µM (inactive),7.28 µM (inactive),4.91 µM (inactive),5.11 µM (inactive),14.5 µM (inactive),3.64 µM (inactive),72.8 µM (inactive),1.09 µM (active),14.5 µM (inactive),> 67.3 µM (inactive),> 86.5 µM (inactive),8.05 µM (inactive),> 83.4 µM (inactive),3.17 µM (inactive),13.8 µM (inactive)
CN(NC(=O)CCCl)C1=NCCN1,> 100 µM (inactive),> 100 µM (inactive),> 100 µM (inactive),> 100 µM (inactive),> 100 µM (inactive),> 100 µM (inactive),> 100 µM (inactive),> 100 µM (inactive),> 100 µM (inactive),> 100 µM (inactive),> 100 µM (inactive),> 100 µM (inactive),> 100 µM (inactive),> 100 µM (inactive),> 100 µM (inactive),> 100 µM (inactive),> 100 µM (inactive),> 100 µM (inactive),> 100 µM (inactive),> 100 µM (inactive)
Cc1cc(S(=O)(=O)Nc2nc(Nc3ccc4ccccc4c3)n[nH]2)c(S)cc1Cl,55.7 µM (inactive),75.9 µM (inactive),> 100 µM (inactive),57.8 µM (inactive),41.5 µM (inactive),28.1 µM (inactive),> 100 µM (inactive),22.2 µM (inactive),52.8 µM (inactive),46.8 µM (inactive),74.8 µM (inactive),92.9 µM (inactive),13.7 µM (inactive),> 100 µM (inactive),43 µM (inactive),73.8 µM (inactive),75.2 µM (inactive),> 100 µM (inactive),> 100 µM (inactive),44.7 µM (inactive)
Cc1cn(C2CC(Br)C(COC(c3ccccc3)(c3ccccc3)c3ccccc3)O2)c(=O)[nH]c1=O (stereo not given),10.5 µM (inactive),12 µM (inactive),4.88 µM (inactive),14 µM (inactive),8.2 µM (inactive),16.9 µM (inactive),10.9 µM (inactive),14.6 µM (inactive),14.2 µM (inactive),13.2 µM (inactive),10 µM (inactive),17.7 µM (inactive),14.9 µM (inactive),8.17 µM (inactive),7.4 µM (inactive),16.6 µM (inactive),11.2 µM (inactive),16.7 µM (inactive),5 µM (inactive),14.3 µM (inactive)
CCC(C)C(NC(=O)CNC(=O)C(Cc1ccccc1)NC(=O)C1CCCN1C(=O)c1ccc(-c2ccc(Cl)cc2Cl)o1)C(=O)OC (stereo not given) (X33-PFGI-OMe; configuration not given here),23.9 µM (inactive),92.5 µM (inactive),8.09 µM (inactive),31.6 µM (inactive),13.6 µM (inactive),31.1 µM (inactive),15 µM (inactive),50.2 µM (inactive),19.6 µM (inactive),46.8 µM (inactive),20.8 µM (inactive),24.7 µM (inactive),23.4 µM (inactive),10.6 µM (inactive),34.1 µM (inactive),74.8 µM (inactive),19.4 µM (inactive),27.3 µM (inactive),12.5 µM (inactive),23 µM (inactive)
